{"source": "paper PMC4368200", "about": "“Triclabendazole Sulfoxide Causes Stage-Dependent Embryolethality in Zebrafish and Mouse In Vitro” (PLoS ONE, 2015)", "key": {"[1]": {"set-up": "method as in PMID 3824395", "conditions": "200mg/kg dose; cited from earlier work"}, "[2]": {"tested_on": "rat embryos explanted at GD 9.5", "test": "Postimplantation whole embryo culture (postWEC)", "set-up": "species or system Sprague Dawley rats; key to Yolk sac circulation (median): 1 = few/abnormal vessels, 2 = delayed, 3 = complete vascularization; key to Morphological score: sum of structure scores; higher = more advanced differentiation", "conditions": "for Crown-rump length / Dysmorphogenic embryos / Morphological score / Somites number / Yolk sac circulation (median): 48 h; for postWEC LOAEC / postWEC NOAEC: GD 9.5-11.5, 48 h; for Teratogenic/dysmorphogenic potency, times lower than ABZ: postimplantation rodent embryos", "protocol": "Nulliparous female rats, which were checked to be in the oestrus phase of the oestrous cycle, were housed with adult males (1:1) for 4 h, considering 2 h of light and 2 h of darkness. Mating was confirmed by the presence of sperm in vaginal smear, and the following 24 h were considered as gestational day 0 (GD 0).\nRat embryos were explanted and evaluated as described before with some variations. Briefly, embryos were explanted at GD 9.5 under sterile conditions. Two embryos were incorporated in flasks filled with 3.5 mL of culture medium which contained 20% of rat serum and 80% of serum mixture (Biochrom AG; Berlin, Germany). TCBZ, TCBZSO, ABZ and ABZSO were dissolved in dimethyl sulfoxide (DMSO; Sigma Aldrich Spain) and added to the culture medium to a final DMSO concentration of 0.1%. Culture flasks were oxygenated at the beginning of the culture with a gas mixture containing 12% O2 and after 38 h with a gas mixture containing 50% O2. Embryos were cultured at a temperature of 38°C, under rotation at a speed of 25 rpm (Noria R, Ovan Spain) for 48 h. After this period, embryos presenting yolk sac circulation and heartbeat were considered alive and were selected for further evaluation. The yolk sac circulation was evaluated according to the level of formation of blood vessels, giving a score of 1 in the cases in which few vessels were observed or the vascularization was abnormal, a score of 2 when a delay in vascularization was observed and 3 for complete vascularization, as previously described in [35]. Growth evaluation was assessed by crown-rump length and differentiation was evaluated by counting the number of somites and the morphological score. This score is the sum of the scores given to several embryonic structures depending on their differentiation stage, corresponding higher values with higher stages of differentiation. Furthermore, the percentage of dysmorphogenesis was calculated according to [36].\nFor the postWEC experiments, the selected concentrations were 140 μM, 278 μM and 556 μM for TCBZ and 267 μM, 666 μM and 932 μM for TCBZSO. The tested concentrations for ABZ analysis were 0.4 μM, 1.1 μM and 1.9 μM and for ABZSO were 3.4 μM, 9 μM, 12 μM, 14 μM and 16 μM."}, "[3]": {"test": "Plasma Cmax in humans after therapeutical TCBZ dose (literature)", "type": "in vivo", "conditions": "10 mg/kg"}, "[4]": {"set-up": "method as in PMID 21337234", "conditions": "cows, 12 mg/kg dose; calculated from ref 39; read-out: TCBZSO Cmax; cited from earlier work"}, "[5]": {"set-up": "method as in PMID 20128898", "conditions": "sheep, TCBZ 10 mg/kg; calculated from ref 41; read-out: TCBZSO Cmax; cited from earlier work"}, "[6]": {"set-up": "method as in PMID 7905812", "conditions": "rabbits, single 10 mg/kg TCBZ dose; transformed to μM from ref 40; read-out: TCBZSO maximum plasma concentration (Cmax); cited from earlier work"}}, "note": "Read-outs that look alike come from different tables or passages of the source. Marks after values point to notes of the source that are not given here."}
{"molecule": "CSc1nc2cc(Cl)c(Oc3cccc(Cl)c3Cl)cc2[nH]1", "note": "[TCBZ, 5-chloro-6-(2,3-dichlorophenoxy)-2-(methylthio)benzimidazole]", "values": [{"measurement": "Teratogenicity in vivo", "setting": "[1]", "value": "not teratogenic at a 200mg/kg dose [23]"}, {"measurement": "Crown-rump length", "setting": "[2]; 140 μM", "value": "3.5 ± 0.2", "unit": "mm"}, {"measurement": "Dysmorphogenic embryos", "setting": "[2]; 140 μM", "value": 0, "unit": "%"}, {"measurement": "Morphological score", "setting": "[2]; 140 μM", "value": "39.0 ± 1.5"}, {"measurement": "Somites number", "setting": "[2]; 140 μM", "value": "26.9 ± 1.1"}, {"measurement": "Yolk sac circulation (median)", "setting": "[2]; 140 μM", "value": 3.0}, {"measurement": "Frequency of dysmorphogenesis: Branchial bars", "setting": "[2]; 278 µM", "value": 25, "unit": "%"}, {"measurement": "Frequency of dysmorphogenesis: Flexion", "setting": "[2]; 278 µM", "value": 12.5, "unit": "%"}, {"measurement": "Frequency of dysmorphogenesis: Head", "setting": "[2]; 278 µM", "value": 12.5, "unit": "%"}, {"measurement": "Frequency of dysmorphogenesis: Otic vesicles", "setting": "[2]; 278 µM", "value": 12.5, "unit": "%"}, {"measurement": "Frequency of dysmorphogenesis: Yolk sac", "setting": "[2]; 278 µM", "value": 62.5, "unit": "%"}, {"measurement": "Crown-rump length", "setting": "[2]; 278 μM", "value": "3.2 ± 0.5", "unit": "mm"}, {"measurement": "Dysmorphogenic embryos", "setting": "[2]; 278 μM", "value": "62.5 ^* %"}, {"measurement": "Morphological score", "setting": "[2]; 278 μM", "value": "35.1 ± 5.9"}, {"measurement": "Somites number", "setting": "[2]; 278 μM", "value": "25.7 ± 2.0"}, {"measurement": "Yolk sac circulation (median)", "setting": "[2]; 278 μM", "value": "1.0 ^*"}, {"measurement": "Frequency of dysmorphogenesis: Branchial bars", "setting": "[2]; 556 µM", "value": 100, "unit": "%"}, {"measurement": "Frequency of dysmorphogenesis: Flexion", "setting": "[2]; 556 µM", "value": 50, "unit": "%"}, {"measurement": "Frequency of dysmorphogenesis: Head", "setting": "[2]; 556 µM", "value": 75, "unit": "%"}, {"measurement": "Frequency of dysmorphogenesis: Heart", "setting": "[2]; 556 µM", "value": 12.5, "unit": "%"}, {"measurement": "Frequency of dysmorphogenesis: Optic vesicles", "setting": "[2]; 556 µM", "value": 37.5, "unit": "%"}, {"measurement": "Frequency of dysmorphogenesis: Yolk sac", "setting": "[2]; 556 µM", "value": 100, "unit": "%"}, {"measurement": "Crown-rump length", "setting": "[2]; 556 μM", "value": "2.6 ± 0.6", "unit": "mm"}, {"measurement": "Dysmorphogenic embryos", "setting": "[2]; 556 μM", "value": 100, "unit": "%"}, {"measurement": "Morphological score", "setting": "[2]; 556 μM", "value": "21.0 ± 3.0"}, {"measurement": "Yolk sac circulation (median)", "setting": "[2]; 556 μM", "value": "1.0 ^*"}, {"measurement": "postWEC LOAEC", "setting": "[2]", "value": 278, "unit": "µM"}, {"measurement": "postWEC NOAEC", "setting": "[2]", "value": 140, "unit": "µM"}, {"measurement": "Teratogenic/dysmorphogenic potency, times lower than ABZ", "setting": "[2]", "value": "approximately 250 times"}, {"measurement": "Teratogenic/dysmorphogenic potency, times lower than ABZ", "setting": "[2]; listed as Triclabendazole", "value": 250, "unit": "times"}, {"measurement": "Plasma concentration, times lower than triclabendazole sulfoxide", "setting": "[3]", "value": "approximately 30 times"}]}
{"molecule": "C[S+]([O-])c1nc2cc(Oc3cccc(Cl)c3Cl)c(Cl)cc2[nH]1", "note": "(centres unmarked) [TCBZSO, Triclabendazole sulfoxide]", "values": [{"measurement": "Cmax", "setting": "[4]", "value": 71.3, "unit": "µM"}, {"measurement": "Crown-rump length", "setting": "[2]; 267 μM", "value": "3.4 ± 0.4", "unit": "mm"}, {"measurement": "Dysmorphogenic embryos", "setting": "[2]; 267 μM", "value": 0, "unit": "%"}, {"measurement": "Morphological score", "setting": "[2]; 267 μM", "value": "37.9 ± 2.8"}, {"measurement": "Somites number", "setting": "[2]; 267 μM", "value": "26.6 ± 1.6"}, {"measurement": "Yolk sac circulation (median)", "setting": "[2]; 267 μM", "value": 3.0}, {"measurement": "Frequency of dysmorphogenesis: Branchial bars", "setting": "[2]; 666 µM", "value": 11.1, "unit": "%"}, {"measurement": "Frequency of dysmorphogenesis: Head", "setting": "[2]; 666 µM", "value": 33.3, "unit": "%"}, {"measurement": "Frequency of dysmorphogenesis: Optic vesicles", "setting": "[2]; 666 µM", "value": 33.3, "unit": "%"}, {"measurement": "Frequency of dysmorphogenesis: Yolk sac", "setting": "[2]; 666 µM", "value": 33.3, "unit": "%"}, {"measurement": "Crown-rump length", "setting": "[2]; 666 μM", "value": "3.1 ± 0.7", "unit": "mm"}, {"measurement": "Dysmorphogenic embryos", "setting": "[2]; 666 μM", "value": "55.6 ^* %"}, {"measurement": "Morphological score", "setting": "[2]; 666 μM", "value": "30.8 ± 7.1"}, {"measurement": "Somites number", "setting": "[2]; 666 μM", "value": "25.1 ± 2.1"}, {"measurement": "Yolk sac circulation (median)", "setting": "[2]; 666 μM", "value": "3.0 ^*"}, {"measurement": "Frequency of dysmorphogenesis: Branchial bars", "setting": "[2]; 932 µM", "value": 100, "unit": "%"}, {"measurement": "Frequency of dysmorphogenesis: Flexion", "setting": "[2]; 932 µM", "value": 87.5, "unit": "%"}, {"measurement": "Frequency of dysmorphogenesis: Head", "setting": "[2]; 932 µM", "value": 75, "unit": "%"}, {"measurement": "Frequency of dysmorphogenesis: Limbs", "setting": "[2]; 932 µM", "value": 12.5, "unit": "%"}, {"measurement": "Frequency of dysmorphogenesis: Optic vesicles", "setting": "[2]; 932 µM", "value": 62.5, "unit": "%"}, {"measurement": "Frequency of dysmorphogenesis: Otic vesicles", "setting": "[2]; 932 µM", "value": 25, "unit": "%"}, {"measurement": "Frequency of dysmorphogenesis: Yolk sac", "setting": "[2]; 932 µM", "value": 100, "unit": "%"}, {"measurement": "Crown-rump length", "setting": "[2]; 932 μM", "value": "2.3 ± 0.5", "unit": "mm"}, {"measurement": "Dysmorphogenic embryos", "setting": "[2]; 932 μM", "value": "100 ^* %"}, {"measurement": "Morphological score", "setting": "[2]; 932 μM", "value": "20.3 ± 2.7"}, {"measurement": "Yolk sac circulation (median)", "setting": "[2]; 932 μM", "value": "1.0 ^*"}, {"measurement": "postWEC LOAEC", "setting": "[2]", "value": 666, "unit": "µM"}, {"measurement": "postWEC NOAEC", "setting": "[2]", "value": 267, "unit": "µM"}, {"measurement": "Teratogenic potency, times less potent than parent compound TCBZ", "setting": "[2]; postWEC", "value": 2.5, "unit": "times"}, {"measurement": "Cmax", "setting": "[5]", "value": 37.3, "unit": "µM"}, {"measurement": "Cmax", "setting": "[6]", "value": 33, "unit": "µM"}]}
